Reference: patent US4753953A, “Pyridonecarboxylic acid derivatives and antibacterial pharmaceutical compositions thereof” (priority 1985, dated 1988)
≈ marks a conversion by molar mass, not a printed value. Where two headings read alike, the source gives them in different places.

Legend:
[1] = tested on: S. aureus Smith; test: MIC, in vitro antibacterial activity (standard strains); assay type: cell-based, Staphylococcus aureus; details: Staphylococcus aureus; 10^6 cells/ml; Gram +; read-out: MIC
[2] = tested on: Escherichia coli NIHJ JC-2; test: as above; assay type: cell-based; details: Escherichia coli, NIHJJC2; 10^6 cells/ml; Gram -; read-out: MIC
[3] = tested on: Propionibacterium acens 11828; test: as above; assay type: cell-based; details: Propionibacterium, 11828; 10^6 cells/ml; Gram +; read-out: MIC
[4] = tested on: B. thetaiotaomicron (0661); test: as above; assay type: cell-based; details: Bacteroides thetaiotaomicron; 10^6 cells/ml; Gram -; read-out: MIC
[5] = tested on: P. cepacia GIFU 518; test: as above; assay type: cell-based; details: Burkholderia cepacia, GIFU518
[6] = tested on: Shigella sonnei IID 969; test: as above; assay type: cell-based; details: Shigella sonnei, IID969; 10^6 cells/ml; Gram -; read-out: MIC
Protocol: Minimal inhibitory concentrations (MICs) were determined in accordance with the method recommended by Japan Society of Chemotherapy.

[7] = tested on: Eubacterium lentum GAI 5242; test: as above; assay type: cell-based; details: Eggerthella lenta, GAI5242; 10^6 cells/ml; Gram +; read-out: MIC
[8] = tested on: Veillonella parvula KYA 10790; test: as above; assay type: cell-based; details: Veillonella parvula, KYA10790; 10^6 cells/ml; Gram -; read-out: MIC
[9] = tested on: Peptostreptococcus anaerobius KYA 27337; test: as above; assay type: cell-based; details: Peptostreptococcus anaerobius, KYA27337; 10^6 cells/ml; Gram +; read-out: MIC
[10] = tested on: Alcaligenes faecalis 0114002; test: as above; assay type: cell-based; details: Alcaligenes faecalis, 0114002; 10^6 cells/ml; Gram -; read-out: MIC
[11] = tested on: C. perfringens KYA 13123; test: microbe, parasite or virus in culture; assay type: cell-based; details: Clostridium perfringens, KYA13123
[12] = tested on: S. pyogenes IID 692; test: MIC, in vitro antibacterial activity (standard strains); assay type: cell-based, Streptococcus pyogenes; details: Streptococcus pyogenes, IID692; 10^6 cells/ml; Gram +; read-out: MIC
[13] = tested on: E. faecalis IID 682; test: as above; assay type: cell-based; details: Enterococcus faecalis, IID682; 10^6 cells/ml; Gram +; read-out: MIC
[14] = tested on: Morganella morganii IID 602; test: as above; assay type: cell-based; details: Morganella morganii, IID602; 10^6 cells/ml; Gram -; read-out: MIC
[15] = tested on: Acinetobacter anitratus IID 876; test: as above; assay type: cell-based; details: Acinetobacter calcoaceticus, IID876; 10^6 cells/ml; Gram -; read-out: MIC
[16] = tested on: Staphylococcus aureus 209 P; test: as above; assay type: cell-based; details: Staphylococcus aureus, 209P; 10^6 cells/ml; Gram +; read-out: MIC
[17] = tested on: S. aureus IID 670 (Terajima); test: as above; assay type: cell-based, Staphylococcus aureus; details: Staphylococcus aureus, IID670; 10^6 cells/ml; Gram +; read-out: MIC
[18] = tested on: B. fragilis 25285; test: as above; assay type: cell-based, Bacteroides fragilis; details: Bacteroides fragilis, 25285; 10^6 cells/ml; Gram -; read-out: MIC
[19] = tested on: Bacteroides fragilis GM 7000; test: as above; assay type: cell-based; details: Bacteroides fragilis, GM7000; 10^6 cells/ml; Gram -; read-out: MIC
[20] = tested on: Citrobacter freundii IID 976; test: as above; assay type: cell-based; details: Citrobacter freundii, IID976; 10^6 cells/ml; Gram -; read-out: MIC
[21] = tested on: Pseudomonas aeruginosa V-1; test: as above; assay type: cell-based; details: Pseudomonas aeruginosa, V1
[22] = tested on: Klebsiella pneumoniae KY(GN)6445; test: as above; assay type: cell-based; details: Klebsiella pneumoniae; 10^6 cells/ml; Gram -; read-out: MIC
[23] = tested on: Fusobacterium mortiferum 4249; test: as above; assay type: cell-based; details: Fusobacterium mortiferum, 4249; 10^6 cells/ml; Gram -; read-out: MIC
[24] = tested on: P. aeruginosa IFO 12689; test: as above; assay type: cell-based, Pseudomonas aeruginosa; details: Pseudomonas aeruginosa, IFO12689; 10^6 cells/ml; Gram -; read-out: MIC
[25] = tested on: S. pneumoniae IID 552; test: as above; assay type: cell-based; details: Streptococcus pneumoniae, IID552; 10^6 cells/ml; Gram +; read-out: MIC
[26] = tested on: P. mirabilis IID 994; test: as above; assay type: cell-based; details: Proteus mirabilis, IID994; 10^6 cells/ml; Gram -; read-out: MIC
[27] = tested on: K. pneumoniae 1-220S; test: as above; assay type: cell-based, Klebsiella pneumoniae; details: Klebsiella pneumoniae, 1220S; 10^6 cells/ml; Gram -; read-out: MIC
[28] = tested on: Yersinia enterocolitica IID 981; test: as above; assay type: cell-based; details: Yersinia enterocolitica, IID981; 10^6 cells/ml; Gram -; read-out: MIC
[29] = tested on: P. aeruginosa IID 1210; test: as above; assay type: cell-based, Pseudomonas aeruginosa; details: Pseudomonas aeruginosa, IID1210; 10^6 cells/ml; Gram -; read-out: MIC
[30] = tested on: P. maltophilia GIFU 2491; test: as above; assay type: cell-based; details: Stenotrophomonas maltophilia, GIFU2491; 10^6 cells/ml; Gram -; read-out: MIC
[31] = tested on: Enterobacter cloacae IID 977; test: as above; assay type: cell-based; details: Enterobacter cloacae, IID977; 10^6 cells/ml; Gram -; read-out: MIC
[32] = tested on: Salmonella enteritidis IID 604; test: as above; assay type: cell-based; details: Salmonella enterica; 10^6 cells/ml; Gram -; read-out: MIC
[33] = 10^6 cells/ml, Gram -, read-out: MIC

Row | Structure (SMILES) | MIC [1] | MIC [2] | MIC [3] | MIC [4] | MIC [5] | MIC [6] | MIC [7] | MIC [8] | MIC [9] | MIC [10] | MIC [11] | MIC [12] | MIC [13] | MIC [14] | MIC [15] | MIC [16] | MIC [17] | MIC [18] | MIC [19] | MIC [20] | also measured
1 | C[C@H]1CN(c2c(F)cc3c(=O)c(C(=O)O)cn(CCF)c3c2F)C[C@H]1N (relative stereo) [Example 25, 7-(cis-b 3-Amino-4-methyl-1-pyrrolidinyl)-6,8-difluoro-1-(2-fluoroethyl)-1,4-dihydro-4-oxo-3-quinolinecarboxylic acid] | 0.39 µg/mL (≈ 1.06 µM) | 0.05 µg/mL (≈ 0.135 µM) | 25 µg/mL (≈ 67.7 µM) | 6.25 µg/mL (≈ 16.9 µM) | 1.56 µg/mL (≈ 4.22 µM) | 0.78 µg/mL (≈ 2.11 µM) | 1.56 µg/mL (≈ 4.22 µM) | 0.78 µg/mL (≈ 2.11 µM) | 3.13 µg/mL (≈ 8.47 µM) | 0.78 µg/mL (≈ 2.11 µM) | 0.78 µg/mL (≈ 2.11 µM) | 0.78 µg/mL (≈ 2.11 µM) | 0.78 µg/mL (≈ 2.11 µM) | 0.1 µg/mL (≈ 0.271 µM) | 1.56 µg/mL (≈ 4.22 µM) | 0.2 µg/mL (≈ 0.542 µM) | 0.39 µg/mL (≈ 1.06 µM) | 3.13 µg/mL (≈ 8.47 µM) | 6.25 µg/mL (≈ 16.9 µM) | 0.1 µg/mL (≈ 0.271 µM) | MIC [21]: 0.78 µg/mL (≈ 2.11 µM); MIC [22]: 0.1 µg/mL (≈ 0.271 µM); MIC [23]: 3.13 µg/mL (≈ 8.47 µM); MIC [24]: 1.56 µg/mL (≈ 4.22 µM); MIC [25]: 0.78 µg/mL (≈ 2.11 µM); MIC [26]: 0.1 µg/mL (≈ 0.271 µM); MIC [27]: 0.2 µg/mL (≈ 0.542 µM); MIC [28]: 0.1 µg/mL (≈ 0.271 µM); MIC [29]: 6.25 µg/mL (≈ 16.9 µM); MIC [30]: 1.56 µg/mL (≈ 4.22 µM); MIC [31]: 0.1 µg/mL (≈ 0.271 µM); MIC [32]: 0.1 µg/mL (≈ 0.271 µM)
2 | CCNCC1CN(c2c(F)cc3c(=O)c(C(=O)O)cn(C4CC4)c3c2Cl)CC1C (stereo not drawn) [Example 14, 8-Chloro-1-cyclopropyl-7-(3-ethylaminomethyl-4-methyl-1-pyrrolidinyl)-6-fluoro-1,4-dihydro-4-oxo-3-quinolinecarboxylic acid] | 0.0125 µg/mL (≈ 0.0296 µM) | 0.025 µg/mL (≈ 0.0593 µM) | 1.56 µg/mL (≈ 3.7 µM) | 0.2 µg/mL (≈ 0.474 µM) | 0.78 µg/mL (≈ 1.85 µM) | 0.025 µg/mL (≈ 0.0593 µM) | 0.2 µg/mL (≈ 0.474 µM) | 0.39 µg/mL (≈ 0.924 µM) | ≤ 0.05 µg/mL | 0.78 µg/mL (≈ 1.85 µM) | ≤ 0.05 µg/mL | 0.05 µg/mL (≈ 0.119 µM) | 0.05 µg/mL (≈ 0.119 µM) | 0.2 µg/mL (≈ 0.474 µM) | 0.1 µg/mL (≈ 0.237 µM) | 0.0125 µg/mL (≈ 0.0296 µM) | 0.0125 µg/mL (≈ 0.0296 µM) | 0.05 µg/mL (≈ 0.119 µM) | 0.1 µg/mL (≈ 0.237 µM) | 0.1 µg/mL (≈ 0.237 µM) | MIC [21, 33]: 0.78 µg/mL (≈ 1.85 µM); MIC [22]: 0.05 µg/mL (≈ 0.119 µM); MIC [23]: 0.2 µg/mL (≈ 0.474 µM); MIC [24]: 3.13 µg/mL (≈ 7.42 µM); MIC [25]: 0.05 µg/mL (≈ 0.119 µM); MIC [26]: 0.1 µg/mL (≈ 0.237 µM); MIC [27]: 0.2 µg/mL (≈ 0.474 µM); MIC [28]: 0.2 µg/mL (≈ 0.474 µM); MIC [29]: 3.13 µg/mL (≈ 7.42 µM); MIC [30]: 0.39 µg/mL (≈ 0.924 µM); MIC [31]: 0.2 µg/mL (≈ 0.474 µM); MIC [32]: 0.2 µg/mL (≈ 0.474 µM)
3 | CC1CN(c2c(F)cc3c(=O)c(C(=O)O)cn(C4CC4)c3c2Cl)CC1N (stereo not drawn) [Example 7, 7-(3-Amino-4-methyl-1-pyrrolidinyl)-8-chloro-1-cyclopropyl-6-fluoro-1,4-dihydro-4-oxo-3-quinolinecarboxylic acid] | 0.05 µg/mL (≈ 0.132 µM) | 0.0063 µg/mL (≈ 0.0166 µM) | 0.78 µg/mL (≈ 2.05 µM) | 0.2 µg/mL (≈ 0.527 µM) | 0.2 µg/mL (≈ 0.527 µM) | 0.0063 µg/mL (≈ 0.0166 µM) | 0.1 µg/mL (≈ 0.263 µM) | 0.1 µg/mL (≈ 0.263 µM) | 0.2 µg/mL (≈ 0.527 µM) | 0.1 µg/mL (≈ 0.263 µM) | 0.1 µg/mL (≈ 0.263 µM) | 0.1 µg/mL (≈ 0.263 µM) | 0.1 µg/mL (≈ 0.263 µM) | 0.05 µg/mL (≈ 0.132 µM) | 0.025 µg/mL (≈ 0.0658 µM) | 0.025 µg/mL (≈ 0.0658 µM) | 0.05 µg/mL (≈ 0.132 µM) | 0.05 µg/mL (≈ 0.132 µM) | 0.1 µg/mL (≈ 0.263 µM) | 0.025 µg/mL (≈ 0.0658 µM) | MIC [21, 33]: 0.2 µg/mL (≈ 0.527 µM); MIC [22]: 0.0125 µg/mL (≈ 0.0329 µM); MIC [23]: 0.2 µg/mL (≈ 0.527 µM); MIC [24]: 0.39 µg/mL (≈ 1.03 µM); MIC [25]: 0.1 µg/mL (≈ 0.263 µM); MIC [26]: 0.025 µg/mL (≈ 0.0658 µM); MIC [27]: 0.05 µg/mL (≈ 0.132 µM); MIC [28]: 0.025 µg/mL (≈ 0.0658 µM); MIC [29]: 0.39 µg/mL (≈ 1.03 µM); MIC [30]: 0.05 µg/mL (≈ 0.132 µM); MIC [31]: 0.05 µg/mL (≈ 0.132 µM); MIC [32]: 0.025 µg/mL (≈ 0.0658 µM)
